Reference: publication PMC9046087, “Structural basis of tethered agonism of the adhesion GPCRs ADGRD1 and ADGRF1” (Nature, 2022)
Residue numbers refer to the chain shown, from its start. Ends that are not written are not given here.

Legend:
Assay type in all cases: cell-based
ADGRF1 [1] = biological target: T1, ADGRF1 (Homo sapiens, UniProt Q5T601, L764A); assay: BRET assay using TRUPATH biosensors, Gi activation of ADGRF1; settings: ADGRF1 L764^5.56bA, n = 3
T1 construct: Flag (N); expressed in transfected cells; host or cells: HEK293F
Method: (§1) To study the synthetic stalk peptide-induced G protein activation of ADGRD1 and ADGRF1, a BRET assay using TRUPATH biosensors was conducted to measure the proximal interaction between RLuc8 fused to the Gα subunit and GFP2 fused to the Gγ subunit. The TRUPATH suite of biosensors was obtained from Addgene (Addgene kit no. 1000000163) as a gift from B. Roth, including GαsS-RLuc8, Gαi1-RLuc8, Gβ3 and Gγ9-GFP2 as previously described.
(§2) The wild-type or mutant ADGRD1 and ADGRF1 were transiently co-transfected with plasmids encoding Gα-RLuc8 (GαsS-RLuc8 for Gs activation assay; Gαi1-RLuc8 for Gi activation assay), Gβ3 and Gγ9-GFP2 at a ratio of 2:1:1:1 (receptor plasmid, 800 ng; G protein subunit plasmids, 400 ng for each) in 2 ml HEK293F cells at a density of 1.2 × 10^6 cells per ml. Cell cultivation and receptor surface expression measurement were performed as described above. The cells were plated into 96-well white plates (40,000 cells per well) in 60 μl of assay buffer and incubated at 37 °C for 30 min. Then 10 μl of freshly prepared 50 μM coelenterazine 400a (Nanolight Technologies) was added. […] The cells were stimulated with 30 μl of synthetic stalk peptide at different concentrations and the BRET signals were monitored continuously five times. The last measurements were used in data analysis. The BRET ratios were calculated as the ratio of the GFP2 emission to RLuc8 emission.

ADGRF1 [2] = biological target: T2, ADGRF1 (Homo sapiens, UniProt Q5T601, M627A); assay: as above; settings: ADGRF1 M627^2.50bA
T2 construct: Flag (N); expressed in transfected cells; host or cells: HEK293F
Method: as §1, §2

ADGRF1 [3] = biological target: T3, ADGRF1 (Homo sapiens, UniProt Q5T601, Y684A); assay: as above; settings: ADGRF1 Y684^3.56bA
T3 construct: Flag (N); expressed in transfected cells; host or cells: HEK293F
Method: as §1, §2

ADGRF1 [4] = biological target: T4, ADGRF1 (Homo sapiens, UniProt Q5T601, F690A); assay: BRET assay using TRUPATH biosensors, Gs activation of ADGRF1; settings: Gs, ADGRF1 F690^ICL2A, n = 3
T4 construct: Flag (N); expressed in transfected cells; host or cells: HEK293F
T4 sequence (Q5T601 20-910 F690A): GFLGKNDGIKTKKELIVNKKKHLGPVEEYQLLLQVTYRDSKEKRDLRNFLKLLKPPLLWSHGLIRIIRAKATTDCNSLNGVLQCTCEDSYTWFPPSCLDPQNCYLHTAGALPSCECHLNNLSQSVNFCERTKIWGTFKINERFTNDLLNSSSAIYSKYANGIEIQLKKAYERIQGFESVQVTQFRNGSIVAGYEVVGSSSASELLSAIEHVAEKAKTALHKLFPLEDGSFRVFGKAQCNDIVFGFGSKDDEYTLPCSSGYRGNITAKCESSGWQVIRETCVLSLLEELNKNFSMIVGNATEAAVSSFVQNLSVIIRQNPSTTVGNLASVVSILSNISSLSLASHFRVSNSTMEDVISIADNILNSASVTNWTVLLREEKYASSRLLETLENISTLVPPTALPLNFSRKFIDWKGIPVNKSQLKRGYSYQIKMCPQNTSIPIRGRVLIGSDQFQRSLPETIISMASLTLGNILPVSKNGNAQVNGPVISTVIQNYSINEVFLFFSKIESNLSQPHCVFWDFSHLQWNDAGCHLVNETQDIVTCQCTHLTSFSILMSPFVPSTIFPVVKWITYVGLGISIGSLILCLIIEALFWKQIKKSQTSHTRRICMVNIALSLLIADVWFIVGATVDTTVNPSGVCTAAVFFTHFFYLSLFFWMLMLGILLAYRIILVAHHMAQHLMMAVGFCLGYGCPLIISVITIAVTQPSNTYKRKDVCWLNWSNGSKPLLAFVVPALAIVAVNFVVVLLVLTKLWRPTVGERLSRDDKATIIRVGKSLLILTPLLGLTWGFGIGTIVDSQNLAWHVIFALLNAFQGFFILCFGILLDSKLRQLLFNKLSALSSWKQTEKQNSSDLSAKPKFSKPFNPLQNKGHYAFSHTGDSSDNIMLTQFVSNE
Method: as §1, §2

ADGRF1 [5] = biological target: T5, ADGRF1 (Homo sapiens, UniProt Q5T601, R623A); assay: as above; settings: Gs, ADGRF1 R623^2.46bA, n = 3
T5 construct: Flag (N); expressed in transfected cells; host or cells: HEK293F
T5 sequence (Q5T601 20-910 R623A): T4 sequence (Q5T601 20-910 F690A) with R604A, A671F
Method: as §1, §2

ADGRF1 [6] = biological target: T6, ADGRF1 (Homo sapiens, UniProt Q5T601, R788A); assay: as above; settings: Gs, ADGRF1 R788^6.37bA, n = 3
T6 construct: Flag (N); expressed in transfected cells; host or cells: HEK293F
Method: as §1, §2

[7] = n = 3, read-out: pEC50 (mean ± s.e.m.) (converted)
[8] = read-out: pEC50 (mean ± s.e.m.) (converted)

T6 sequence (Q5T601 20-910 R788A): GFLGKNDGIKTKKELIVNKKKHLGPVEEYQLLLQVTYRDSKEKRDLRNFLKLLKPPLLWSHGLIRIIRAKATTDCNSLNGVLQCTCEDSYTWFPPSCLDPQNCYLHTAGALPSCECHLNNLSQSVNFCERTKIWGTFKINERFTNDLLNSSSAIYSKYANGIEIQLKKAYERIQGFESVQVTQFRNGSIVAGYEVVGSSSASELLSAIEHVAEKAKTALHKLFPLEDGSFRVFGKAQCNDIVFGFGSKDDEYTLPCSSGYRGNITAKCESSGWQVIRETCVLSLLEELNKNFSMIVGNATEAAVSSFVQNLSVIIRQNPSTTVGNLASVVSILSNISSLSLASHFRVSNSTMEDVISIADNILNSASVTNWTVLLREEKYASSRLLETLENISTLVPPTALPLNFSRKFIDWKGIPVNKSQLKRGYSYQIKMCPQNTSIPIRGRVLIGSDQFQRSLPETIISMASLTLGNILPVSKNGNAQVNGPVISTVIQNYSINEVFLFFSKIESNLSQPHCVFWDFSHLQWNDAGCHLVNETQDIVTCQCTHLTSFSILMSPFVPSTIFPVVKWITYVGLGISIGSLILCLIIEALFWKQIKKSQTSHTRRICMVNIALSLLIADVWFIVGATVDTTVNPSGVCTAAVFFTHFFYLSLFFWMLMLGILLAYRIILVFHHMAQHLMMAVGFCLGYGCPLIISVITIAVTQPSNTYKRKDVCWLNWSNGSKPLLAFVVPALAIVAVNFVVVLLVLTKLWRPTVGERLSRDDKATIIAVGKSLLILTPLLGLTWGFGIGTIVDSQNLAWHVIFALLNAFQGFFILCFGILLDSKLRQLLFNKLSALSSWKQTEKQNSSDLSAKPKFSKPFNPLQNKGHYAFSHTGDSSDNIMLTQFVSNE
T2 sequence (Q5T601 20-910 M627A): as the sequence (Q5T601 20-910 R788A) above, with M608A, A769R counted along it
T3 sequence (Q5T601 20-910 Y684A): as the sequence (Q5T601 20-910 R788A) above, with Y665A, A769R counted along it
T1 sequence (Q5T601 20-910 L764A): as the sequence (Q5T601 20-910 R788A) above, with L745A, A769R counted along it

In the case of TSFSILMSPFVP [pF1], the EC50 (ADGRF1 [1]) is reported as 1300 nM, the “Emax (mean ± s.e.m.)” value (ADGRF1 [1]) is reported as 86 ± 14 % of WT and the “Emax (mean ± s.e.m.)” value (ADGRF1 [2]; n = 3) is reported as 113 ± 8 % of WT. For the same sequence, the EC50 (ADGRF1 [2]; [7]) was 692 nM, the “Emax (mean ± s.e.m.)” value (ADGRF1 [3]; n = 3) was 115 ± 17 % of WT and the EC50 (ADGRF1 [3]; [7]) was 813 nM. For the same sequence, the “Emax (mean ± s.e.m.)” value (ADGRF1 [4]) was 110 ± 12 % of WT, the EC50 (ADGRF1 [4]; [8]) was 115 nM and the “Emax (mean ± s.e.m.)” value (ADGRF1 [5]) was 57 ± 10 % of WT. For the same sequence, the EC50 (ADGRF1 [5]; [8]) was 148 nM, the “Emax (mean ± s.e.m.)” value (ADGRF1 [6]) was 112 ± 15 % of WT and the EC50 (ADGRF1 [6]; [8]) was 933 nM.
